Results on one substance are retold here after EP4129324A1, “COMPOSITIONS COMPRISING AT LEAST AN AMYLIN RECEPTOR AGONIST AND A GLP-1 RECEPTOR AGONIST” (Adocia, priority 2021, dated 2023).

“Also recorded” adds a separate entry of the source.

The test system of this assay is gastro-intestinal transit (gastric emptying) in the mouse. The assay can be described thus: Gastric emptying (stomach content weight) after charcoal suspension in fasted mice, subcutaneous administration. The settings on record: male Swiss mice, subcutaneous injection of a composition comprising pramlintide alone, versus vehicle. The format is in vivo. The protocol: The aim of this study was to evaluate the effects of pramlintide (compositions C7-1 and C7-2) and co-administration of pramlintide (compositions C7-1 and C7-2) and exenatide (C7-3 and C7-4) on gastro-intestinal transit (gastric emptying) in the mouse.
Co-administration means that the composition of pramlintide and the composition of exenatide were administered separately.
Studies were conducted on naive male Swiss mice (Janvier Lab) as no gender specific effect were expected. Body weight range of 25-32 g were included in the analysis.
Mice were approximately fasted for 18 hours (~T0-18 h). The gastric emptying (i.e. stomach content) was measured via the administration of a suspension of charcoal at T0 (activated charcoal (0.4 ml/mouse, […]; Sigma Reference number C9157), suspended 10% with 2.5% arabic gum in distilled water). […] Afterwards, the stomach was opened, the contents washed out and the weight recorded again (empty stomach weight).
The results are expressed as the variation of gastric content with the administration compositions comprising pramlintide compared with the gastric content with administration the vehicle (weight of gastric content with pramlintide / weight of gastric content with vehicle). […]

For the substance “Lys-Cys-Asn-Thr-Ala-Thr-Cys-Ala-Thr-Gln-Arg-Leu-Ala-Asn-Phe-Leu-Val-His-Ser-Ser-Asn-Asn-Phe-Gly-Pro-lle-Leu-Pro-Pro-Thr-Asn-Val-Gly-Ser- Asn-Thr-Tyr [pramlintide]”, the “stomach (gastric) content weight, i.e. gastric emptying, result in words” value is recorded as “increases the stomach content weight; also recorded: increases the gastric content weight”.
